From publication PMC10396955, “2-Oxabicyclo[2.1.1]hexanes as saturated bioisosteres of the ortho-substituted phenyl ring” (Nature Chemistry, 2023)

Legend:
physchem = type: physicochemical; conditions: for D (partition ratio), incubation 1 / D (partition ratio), incubation 2 / D (partition ratio), incubation 3: Table S2, n-octanol/PBS pH 7.4
Experimental: Determination of Distribution Coefficient (LogD, pH 7.4) […]
n-octanol – phosphate buffered saline (PBS), pH 7.4. Distribution coefficient (or LogD) is a […]
Phosphate buffered saline, tablet (Sigma-Aldrich, USA; Cat # P4417)
Acetic acid (Enamine, Ukraine.)
DMSO stock solutions of the test compounds 10mM
Gradient HPLC system (Shimadzu, Japan)
MTR22 Multi Mix Rotator (UNICO, USA)
Laboratory Centrifuge, Sigma 4-15C, Qiagen (SIGMA GmbH, Germany) […]
allowed to mix in a rotator for 1 h at 30 rpm. Phase separation was assured by centrifugation for […]
dilution. The samples (both phases) were analyzed using a HPLC system coupled with a tandem mass spectrometer. Mebendazole was used as a reference compound. […]
where: SO – peak area of the analyte in octanol phase
S P – peak area of the analyte in PBS buffer do – dilution coefficient for octanol phase dp – dilution coefficient for aqueous phase

Fusarium oxysporum = assay: Antifungal activity, agar well diffusion method; type: cell-based; conditions: for zone of inhibition at 3.9 µg/mL / zone of inhibition at […] / zone of inhibition at 15.6 µg/mL / zone of inhibition at 31.25 µg/mL / zone of inhibition at 62.5 µg/mL / zone of inhibition at 125 µg/mL / zone of inhibition at 250 µg/mL / zone of inhibition at 500 µg/mL / zone of inhibition at 1000 µg/mL: Fusarium oxysporum, zones st (static growth), read-out: Diameter of inhibition zone; for zone of inhibition at 3.9 µg/mL: 0.0039 mg/mL; for zone of inhibition at […]: 0.0078 mg/mL; for zone of inhibition at 15.6 µg/mL: 0.0156 mg/mL; for zone of inhibition at 31.25 µg/mL: 0.03125 mg/mL; for zone of inhibition at 62.5 µg/mL: 0.0625 mg/mL; for zone of inhibition at 125 µg/mL: 0.125 mg/mL; for zone of inhibition at 250 µg/mL: 0.25 mg/mL; for zone of inhibition at 500 µg/mL: 0.5 mg/mL; for zone of inhibition at 1000 µg/mL: 1 mg/mL, 40 µl per well, 25 °C, 72 h; for lowest inhibition concentration: agar well diffusion, tested 0.0039-1.0 mg/mL
Source text: (§1) The agar well diffusion method is widely used to evaluate the antimicrobial activity of different substances (S. Magaldi, S. Mata-Essayag, C. Hartung de Capriles, et al. Well diffusion for antifungal susceptibility testing, Int. J. Infect. Dis. 8, 2004 , 39–45; C. Valgas, S. M. De Souza, E. F. A. Smânia, et al. Screening methods to determine antibacterial activity of natural products. Braz. J. Microbiol. 38 , 2007 , 369–380). Similarly to the procedure used in a disk-diffusion method, the agar plate surface is inoculated by spreading a volume of the microbial inoculum over the entire agar surface. Then, a hole with a diameter of 6 to 8 mm is punched aseptically with a sterile cork borer or a tip, and a volume […] of the antimicrobial agent or extract solution at desired concentration is introduced into the well. Then, agar plates are incubated under suitable conditions depending upon the test microorganism. The antimicrobial agent diffuses in the agar medium and inhibits the growth of the microbial strain tested (M. Balouiri, M. Sadiki, S. K. Ibnsouda. Methods for in vitro evaluating […]
(§2) Agar well diffusion method is a qualitative method used to measure the ability of compounds to inhibit microbial growth. This test is a quick and easy way to measure and compare levels of inhibitory […]
(§3) Antifungal activity of the synthetic compounds using agar well diffusion The compunds were tested towards plant pathogens Fusarium oxysporum Schltdl. and F. verticillioides (Sacc.) Nirenberg isolated from crops. Antifungal activity of the synthetic compounds was evaluated with using of an agar well diffusion method based on a disk diffusion assay for testing filamentous fungi (CLSI M51-A) [CLSI. Method for Antifungal Disk Diffusion Susceptibility Testing of Nondermatophyte Filamentous Fungi; Approved Guideline.CLSI document M51-A. Wayne, PA:
(§4) Clinical and Laboratory Standards Institute; 2010. This method is standardized for Altenaria , Aspergillus, Bipolaris , Fusarium , order Mucorales etc.
(§5) Preparation of synthetic compounds for mycological assay
(§6) Solutions of fungicides and its analogs were diluted in dimethyl sulfoxide (DMSO) to produce the […]
(§7) Antifungal well diffusion method
(§8) The fungal strains were cultured on potato dextrose agar slants (PDA, Eur. Pharm.) and incubated at 25 °C for 5 days. Sterile distilled water was used to cover and resuspend the colonies. Suspension of […]
(§9) conidia was adjusted to inoculums 5×10^6 conidia/mL. The suspension was further diluted in warm PDA 1:10 to obtain final working inoculums 5×10^5 conidia/mL.
(§10) Polypropylene cylinders (d, 5 mm) were placed on the surface and wells punched in the medium were used as reservoir of the test substances in different concentrations. 40 µl of solutions containing 0.0039-1.0 mg/mL of a test compound was added into the wells.
(§11) Each compound was tested in triplicate at different concentrations. Growth control was a well with 40 µl of DMSO, which was used for test components dilution.
(§12) Plates incubated at 25 °C for 72 h. The test compounds at known concentration into contact with an inoculated medium then exerts a growth-inhibiting effect then a clear zone (the zone of inhibition) appears around the test product. Diameter of a clear zone around the well is measured at the end of the incubation period in millimeters. If the fungal strain is susceptible to the antifungal agent, then a zone of inhibition appears on the agar plate. If it is resistant to the test compound, then no zone is evident.
(§13) The size of the zone of inhibition is usually related to the level of antifungal activity present in the […]
(§14) The growth rate of Fusarium oxysporum and F. verticillioides for each well was determined visually and compared with the growth of control.
(§15) As shown in the table the antifungal activity of the 6 compounds, - Fluxapyroxad, compound 28, compound 29, Boscalid, compound 30, compound 31, - were tested against plant pathogenic fungal […]
(§16) toward Fusarium oxysporum (Table S5, Figure S16). Inhibition zones of all compounds characterized […]

Fusarium verticillioides = assay: Antifungal activity, agar well diffusion method; type: cell-based; conditions: for zone of inhibition at 3.9 µg/mL / zone of inhibition at […] / zone of inhibition at 15.6 µg/mL / zone of inhibition at 31.25 µg/mL / zone of inhibition at 62.5 µg/mL / zone of inhibition at 250 µg/mL / zone of inhibition at 500 µg/mL / zone of inhibition at 1000 µg/mL / zone of inhibition at 125 µg/mL: Fusarium verticillioides, 0 = absence of antifungal activity, read-out: Diameter of inhibition zone; for zone of inhibition at 3.9 µg/mL: 0.0039 mg/mL; for zone of inhibition at […]: 0.0078 mg/mL; for zone of inhibition at 15.6 µg/mL: 0.0156 mg/mL; for zone of inhibition at 31.25 µg/mL: 0.03125 mg/mL; for zone of inhibition at 62.5 µg/mL: 0.0625 mg/mL; for zone of inhibition at 250 µg/mL: 0.25 mg/mL; for zone of inhibition at 500 µg/mL: 0.5 mg/mL; for zone of inhibition at 1000 µg/mL: 1 mg/mL, 40 µl per well, 25 °C, 72 h; for lowest inhibition concentration: agar well diffusion, tested 0.0039-1.0 mg/mL; for zone of inhibition at 125 µg/mL: 0.125 mg/mL
Source text: as §1, §2, §3, §4, §5, §6, §7, §8, §9, §10, §11, §12, §13, §14, §15, §16

[1] = pH 7.4, LogD, pH 7.4, incubation 1
[2] = pH 7.4, LogD, pH 7.4, incubation 2
[3] = pH 7.4, LogD, pH 7.4, incubation 3

SMILES | D (partition ratio), incubation 1 (physchem) | D (partition ratio), incubation 2 (physchem) | D (partition ratio), incubation 3 (physchem) | logD at 1 h (physchem; pH 7.4, LogD, pH 7.4 (mean)) | logD at 1 h (physchem; [1]) | logD at 1 h (physchem; [3]) | logD at 1 h (physchem; pH 7.4, logD (7.4)) | zone of inhibition at 3.9 µg/mL (Fusarium oxysporum) | zone of inhibition at […] (Fusarium oxysporum) | zone of inhibition at 15.6 µg/mL (Fusarium oxysporum) | zone of inhibition at 31.25 µg/mL (Fusarium oxysporum) | zone of inhibition at 62.5 µg/mL (Fusarium oxysporum) | zone of inhibition at 125 µg/mL (Fusarium oxysporum) | zone of inhibition at 250 µg/mL (Fusarium oxysporum) | zone of inhibition at 500 µg/mL (Fusarium oxysporum) | zone of inhibition at 1000 µg/mL (Fusarium oxysporum) | lowest inhibition concentration (Fusarium oxysporum) | zone of inhibition at 3.9 µg/mL (Fusarium verticillioides) | zone of inhibition at […] (Fusarium verticillioides) | zone of inhibition at 15.6 µg/mL (Fusarium verticillioides) | other results
O=C(Nc1ccccc1-c1ccc(Cl)cc1)c1cccnc1Cl [Boscalid, reference compound] | 3.62E+03 | 2.86E+03 | 4.07E+03 | 3.55 | 3.56 | 3.61 | 3.6 | 9 ± 0.6 mm | 9 ± 1.7 mm | 11 ± 1.5 mm | 12 ± 1.7 mm | 24 ± 1 mm | 25 mm | 30 mm | 31 ± 1.2 mm | 39 ± 0.6 mm | 0.0039 mg/mL | 0 mm | 11 ± 1 mm | 24 ± 1.5 mm | logD at 1 h (physchem; [2]): 3.46; zone of inhibition at 31.25 µg/mL (Fusarium verticillioides): 28 ± 1 mm; zone of inhibition at 62.5 µg/mL (Fusarium verticillioides): 30 ± 0.6 mm; zone of inhibition at 250 µg/mL (Fusarium verticillioides): 39 ± 0.6 mm; zone of inhibition at 500 µg/mL (Fusarium verticillioides): 40 ± 0.6 mm; zone of inhibition at 1000 µg/mL (Fusarium verticillioides): 44 ± 1.2 mm; lowest inhibition concentration (Fusarium verticillioides): 0.0078 mg/mL
Cn1cc(C(=O)N[C@@H]2[C@H]3C[C@]2(c2cc(F)c(F)c(F)c2)CO3)c(C(F)F)n1 (relative stereo) [Compound 29] | 5.70E+02 | 6.13E+02 | 5.77E+02 | 2.77 | 2.76 | 2.76 | 2.8 | 9 ± 1.2 mm | 13 ± 1.5 mm | 14 ± 1.2 mm | 18 ± 1.5 mm | 18 ± 0.6 mm | 23 ± 0.6 mm | 32 ± 1.7 mm | 36 ± 1 mm | 38 ± 1.53 mm | 0.0039 mg/mL | 0 mm | 10 mm | 15 ± 0.6 mm | logD at 1 h (physchem; [2]): 2.79; zone of inhibition at 31.25 µg/mL (Fusarium verticillioides): 26 ± 1.2 mm; zone of inhibition at 62.5 µg/mL (Fusarium verticillioides): 31 ± 1.2 mm; zone of inhibition at 125 µg/mL (Fusarium verticillioides): 35 ± 1 mm; zone of inhibition at 250 µg/mL (Fusarium verticillioides): 39 ± 1.2 mm; zone of inhibition at 500 µg/mL (Fusarium verticillioides): 41 ± 1.7 mm; zone of inhibition at 1000 µg/mL (Fusarium verticillioides): 45 ± 0.6 mm; lowest inhibition concentration (Fusarium verticillioides): 0.0078 mg/mL
Cn1cc(C(=O)N[C@@H]2[C@@H]3CC[C@@]2(c2cc(F)c(F)c(F)c2)C3)c(C(F)F)n1 (relative stereo) [Compound 28] | 3.24E+04 | 2.00E+04 | 1.32E+04 | 4.32 | 4.51 | 4.12 | 4.3 | 20 mm | 25 mm | 26 ± 1 mm | 28 ± 1 mm | 30 ± 0.6 mm | 34 ± 1.2 mm | 38 ± 1.5 mm | 38 ± 0.6 mm | 44 ± 1.15 mm | < 0.0039 mg/mL | 35 ± 1.5 mm | 37 ± 1.5 mm | 41 ± 1.2 mm | zone of inhibition at 31.25 µg/mL (Fusarium verticillioides): 41 ± 1.7 mm; zone of inhibition at 62.5 µg/mL (Fusarium verticillioides): 47 ± 1 mm; zone of inhibition at 125 µg/mL (Fusarium verticillioides): 48 ± 1.5 mm; zone of inhibition at 250 µg/mL (Fusarium verticillioides): 51 ± 1.5 mm; zone of inhibition at 500 µg/mL (Fusarium verticillioides): 51 ± 1.7 mm; zone of inhibition at 1000 µg/mL (Fusarium verticillioides): 58 ± 1.5 mm
O=C(N[C@@H]1[C@@H]2CC[C@@]1(c1ccc(Cl)cc1)C2)c1cccnc1Cl (relative stereo) [Compound 30] | 4.87E+02 | 3.16E+02 | 6.11E+02 | 2.66 | 2.69 | 2.79 | 3.5 ± 0.1 | 16 ± 1.2 mm | 19 ± 1.2 mm | 20 ± 1.5 mm | 25 ± 0.6 mm | 25 mm | 30 mm | 30 mm | 30 mm | 30 mm | < 0.0039 mg/mL | 11 ± 1.2 mm | 19 ± 1.2 mm | 25 ± 0.6 mm | logD at 1 h (physchem; [2]): 2.5; zone of inhibition at 31.25 µg/mL (Fusarium verticillioides): 30 ± 0.6 mm; zone of inhibition at 62.5 µg/mL (Fusarium verticillioides): 31 ± 1 mm; zone of inhibition at 125 µg/mL (Fusarium verticillioides): 36 ± 1.7 mm; zone of inhibition at 250 µg/mL (Fusarium verticillioides): 41 ± 1.2 mm; zone of inhibition at 500 µg/mL (Fusarium verticillioides): 46 ± 1.7 mm; zone of inhibition at 1000 µg/mL (Fusarium verticillioides): 49 ± 1.2 mm; lowest inhibition concentration (Fusarium verticillioides): < 0.0039 mg/mL
